“Also recorded” adds a separate entry of the source.
Columns and labels:
[1] = tested on: mitochondrial activity; assay: Seahorse Cell Mito Stress Test; format: cell-based; conditions: 20 μM
Method: FIG. 10: Mitochondrial activity assays using the Agilent Seahorse Cell Mito Stress Test kit in absence or presence of SVC_01 [20 μM]. This assay is the widely recognized, well-accepted standard assay for assessing energetic mitochondrial function. Multiple parameters are obtained in this one assay including, basal respiration, ATP-linked respiration, maximal and reserve capacities, and non-mitochondrial respiration. The assay provides insights into the mechanism of mitochondrial dysfunction and allow users to investigate functional differences among cell types, drug candidates, and genetic or biochemical interventions.
Next, we performed safety pharmacology experiments and head-to-head compared the cellular toxicity of SVCs on human cells. For our comparison we used microtubule binding agents including Parthenolide that previously was coined as an inhibitor of detyrosination (Fonrose et al., 2007). This compound was latter shown to disrupt microtubules by non-specific binding to tubulin in the molecular structure (Hotta T. et al., 2021). […] Mitochondrial health was assayed using the Seahorse equipment XF. […] No mitochondrial defects were measured at 20 micromolar concentration of our VASH inhibitor (FIG. 10). […]

[2] = tested on: human adult cardiomyocytes; assay: Western blot of tubulin detyrosination and acetylation in human adult cardiomyocytes; format: cell-based
Method: FIG. 33: human adult cardiomyocytes are treated with vehicle or SVC-01 (inhibitor). Protein lysates are analysed by western blot to evaluate the level of tubulin detyrosination and acetylation.
Specificity of SVC-01 was assayed using both human VASH1 and VASH2 recombinant enzymes. […] Finally, to ensure that regulation of other genes involved in the detyrosination-tyrosination cycle is not affected, we analysed gene expression of all relevant and associated genes following treatment with SVC-02 in adult human cardiomyocytes. We found no alteration of VASH1, VASH2, MATCAP, TTL or SVBP gene expression between vehicle control and SVC-02 treated cells (FIG. 34).

[3] = tested on: cardiomyocytes isolated from failing human hearts; assay: Human myocyte contractility; format: cell-based
Method: Once excised, hearts were transported from the operating room to the laboratory in cold cardioplegia. The myocyte isolation was performed as previously described. An apical wedge was dissected from left ventricular free wall and a catheter was placed into the left anterior descending artery. The cannula was flushed with cold saline to evaluate perfusion of the wedge and tie any major vessels. The myocardium was then perfused with warm non-recirculating Krebs-Henseleit buffer (KHB) solution (12.5 mM glucose, 5.4 mM KCl, 1 mM lactic acid, 1.2 mM MgSO4, 130 mM NaCl, 1.2 mM NaH2PO4, 25 mM NaHCO3, 2 mM Na pyruvate, 20 mM BDM and 10 mM taurine, pH 7.4) for 10 minutes. Then, the myocardium was perfused with recirculated KHB and type II collagenase (294 units/mL) (Worthington Biochemical Corp., Lakewood, NJ, USA) for 5 minutes before calcium was slowly re-introduced to reach a final concentration of 1 mM. The collagenase and calcium supplemented KHB were recirculated for 25-30 minutes depending on the how the myocardium digested. The tissue was then removed from the cannula, rinsed in KHB with 1% bovine serum albumin (BSA) to stop the digestion, and then minced. The cell suspension was then filtered using 280-uM nylon mesh, centrifuged (25×g for 2 min), and resuspended in normal Tyrode's solution. Cells were treated with VASH inhibitor (VASHi) (1 mM) or vehicle (DMSO) before being placed in an incubator for 4 hours.
Contractility was assessed as previously described. After the 4-hour incubation with either VASHi or vehicle was complete, cardiomyocytes were transferred to 35 mm glass-bottom dishes. Contractility data was collected at 37 C. Cardiomyocytes were paced at 0.5 Hz using a myopacer (IonOptix MYP100) with custom fabricated carbon electrodes lowered into the glass bottom dish. Cells were paced for 10-15 seconds to reach steady state contractions and then data was recorded using high-speed video imaging with a Nikon PU-2000 inverted microscope with a 40× objective (IonWizard, IonOptix). A minimum of 5 contractions were recorded for Each myocyte and analyzed offline.
Cardiomyocytes were isolated from failing (N=4) and non-failing (N=3) human hearts, then treated with vehicle or VASHi (SVC-02) to evaluate bioactivity of the small molecule compound in primary human cardiomyocytes. Patient demographics are detailed in a table (FIG. 26). Compiled traces from all non-failing and failing patients are shown (FIG. 27).

[4] = tested on: Sprague Dawley rats; assay: Myocardial tubulin detyrosination after IV injection, western blot; format: in vivo, rat; conditions: single injection IV, 8 weeks old Sprague Dawley rats
Excerpt: B) Quantification of detyrosination levels (D1/alpha-tubulin ratio) in vehicle (n=4) and VASHi-treated rats (n=3).
For efficacy testing we presented SVC_01 to primary cardiomyocytes isolated from Sprague Dawley rats. […] Next, we performed functional studies by measuring key cardiomyocytes parameters including resting, fractional shortening, contraction time and relaxation time. […] The ZSF1 rat model is a hybrid rat obtained by a cross between a ZDF female and an SHHF male rat. This model is an established HFpEF rat model. Obese ZSF1 (O—ZSF1) hybrid rats are compound heterozygote with two different mutated alleles coding defective leptin receptor, resulting in loss of the receptor function. Thus, these animals have increased food intake and develop pronounced features of obesity, diabetes, and resultant HFpEF. […] We performed a western blot analysis from myocardial tissue prepared from Wistar Kyoto (WKY), ZSF1 lean and ZSF1 obese rats (FIG. 14). In line with previously published data of the role of microtubule densification and tubulin detyrosination, we found an increase in both total tubulin as well as detyrosinated tubulin in myocardial tissue of ZSF1-obese rats compared to the lean and WKY controls. […] Similar results were observed by assessment of the transverse stiffness. […]

| mitochondrial activity [1] | Structure (SMILES) | level of tubulin acetylation [2] | level of tubulin detyrosination [2] | contraction velocity [3] | fractional shortening [3] | resting sarcomere length [3] | time to 50% relaxation / relaxation ([3]; 4 hours incubation) | detyrosinated tubulin in myocardial tissue [4] |
| --- | --- | --- | --- | --- | --- | --- | --- | --- |
| does not alter mitochondrial activity | O=C(O)CCC[C@H](NC(=O)[C@H]1O[C@@H]1C(=O)C[C@@H](Cc1ccc(OCc2ccccc2)cc1)C(=O)O)C(=O)NCCc1ccccc1 [SVC_01] | did not affect the level of tubulin acetylation; also recorded: remained unchanged | significantly reduces the level of tubulin detyrosination; also recorded: significant reduction of tubulin detyrosination | – | – | – | – | – |
| – | CCOC(=O)[C@H](Cc1ccc(OCC)cc1)NC(=O)[C@H]1O[C@@H]1C(=O)N[C@@H](Cc1ccc(OCC)cc1)C(=O)OCC [SVC_02] | – | – | did not significantly change | did not significantly change | did not significantly change | improved; also recorded: shortened the time to 50% relaxation | efficient reduction in detyrosinated tubulin |

— patent US20260199284A1, “SPECIFIC VASH COMPOUNDS (SVC) INHIBITORS FOR HEART DISEASES” (MT ACT, priority 2023, published 2026)
